Experimental data as given in patent publication US20220249441A1, “Homodimeric Tobramycin Adjuvant Repurposes Novobiocin as an Effective Antibacterial Agent Against Gram-Negative Bacteria” (priority 2019, published 2022).
Converted amounts (≈) assume the structure as drawn.

Tests used:
[1] = tested on: A. baumannii ATCC 17978 and resistant mutants; assay: microbe, parasite or virus in culture; type: cell-based, Acinetobacter baumannii; details: Acinetobacter baumannii
Method: (§1) Antimicrobial Susceptibility Assay. The in vitro antimicrobial activity of all compounds/antibiotics against a panel of bacteria was evaluated by microbroth dilution method in accordance with the Clinical and Laboratory Standards Institute (CLSI) guidelines (using ATCC strains as quality control strains) (54). Overnight grown bacterial cultures were diluted in saline to achieve a 0.5 McFarland turbidity, followed by 1:50 dilution in Mueller-Hinton broth (MHB) for inoculation to a final concentration of approximately 5×10^5 CFU/mL. […] The lowest concentration that prevented the visible growth of bacteria was defined as the MIC for each antimicrobial agent. The broth with or without bacterial cells was used as positive or negative control, respectively.
Development of Resistance Study. […] Tobramycin and colistin were included as controls. At 24-hour intervals, the cultures were assessed for growth. […] This serial passaging was repeated for 8 days.

P. aeruginosa = assay: Checkerboard assay (antibiotic + adjuvant combination MIC); type: cell-based, Pseudomonas aeruginosa; details: P. aeruginosa PAO1; β-lactam antibiotic alone
Method: as §1
Checkerboard Assay. Combination studies with different antibiotics were performed in 96-well plates as previously described (19). Briefly, the antibiotic of interest was serially diluted in MHB along the abscissa while the adjuvant (tobramycin homodimer) was serially diluted in MHB along the ordinate. This creates a 10×7 matrices wherein each well consists of a combination of different antibiotic and adjuvant concentrations. Overnight grown bacterial cultures were diluted in saline to achieve a 0.5 McFarland turbidity, followed by 1:50 dilution in Mueller-Hinton broth (MHB) for inoculation to a final concentration of approximately 5×10^5 CFU/mL. […] MIC was recorded as wells with the lowest concentration of drugs with no bacterial growth. The fractional inhibitory concentration (FIC) for each antibiotic was calculated by dividing the MIC of the antibiotic in the presence of adjuvant by the MIC of the antibiotic alone. Similarly, the FIC of adjuvant was calculated by dividing the MIC of the adjuvant in the presence of antibiotic by the MIC of the adjuvant alone. FIC index is the sum of both FICs. FIC indices of ≤0.5 were deemed synergistic; >0.5-4, no interaction; and >4, antagonistic.

[2] = ATCC17978, 18 h, Mutant C (seven serial passages, sub-MICs novobiocin + 7.1 μM compound 1)
[3] = ATCC17978, Mutant A (seven serial passages, sub-MICs novobiocin)
[4] = ATCC17978, Mutant B (seven serial passages, sub-MICs colistin)
[5] = ATCC17978, Wild-type A. baumannii ATCC 17978

## CN(C)c1ccc(O)c2c1C[C@H]1C[C@H]3[C@H](N(C)C)C(O)=C(C(N)=O)C(=O)[C@@]3(O)C(O)=C1C2=O [Minocycline]
[1]; [2]
  MIC: 0.125 µg/mL
[1]; [3]
  MIC: 0.5 µg/mL (≈ 1.09 µM)
[1]; [4]
  MIC: < 0.031 µg/mL
[1]; [5]
  MIC: 0.125 µg/mL (≈ 0.273 µM)

## CCN1CCN(C(=O)N[C@@H](C(=O)N[C@@H]2C(=O)N3[C@@H]2SC(C)(C)[C@@H]3C(=O)O)c2ccccc2)C(=O)C1=O [Piperacillin, reference compound]
P. aeruginosa
  MIC Alone: 8 µg/mL

## CO[C@H]1/C=C/O[C@@]2(C)Oc3c(C)c(O)c4c(O)c(c(/C=N/N5CCN(C)CC5)c(O)c4c3C2=O)NC(=O)/C(C)=C\C=C\[C@H](C)[C@H](O)[C@@H](C)[C@@H](O)[C@@H](C)[C@H](OC(C)=O)[C@@H]1C [Rifampicin]
[1]; [2]
  MIC: 2 µg/mL
[1]; [3]
  MIC: 2 µg/mL (≈ 2.43 µM)
[1]; [4]
  MIC: < 0.031 µg/mL
[1]; [5]
  MIC: 2 µg/mL (≈ 2.43 µM)
